In paper PMC7080406 (eLife, 2020):
Like-named read-outs stand apart in the source and are kept apart here.

Columns and labels:
[1] = biological target: T1, MT1 (Homo sapiens, UniProt P48039); assay: GloSensor Gi/o-mediated cAMP production inhibition assay, MT1; type: cell-based; conditions: for EC50: Gi/o mediated
T1 construct: expressed in transfected cells; host or cells: HEK293T (ATCC CRL-11268), transient transfection
Protocol: Briefly, HEK293 T cells (as above) were transiently co-transfected with receptor (MT1 or MT2) and GloSensor cAMP (Promega) plasmids overnight, plated in Poly-L-Lysine coated 384-well white clear bottom plates in DMEM + 1% dialyzed FBS. Cells were used for assays at a minimum of 6 hr after plating. Culture medium was first removed and cells were stimulated with drugs in assay buffer (1x HBSS, 20 mM HEPES, 1 mg/ml BSA, 0.1 mg/ml ascorbic acid, pH 7.4) for 15 min at room temperature (this and all the following steps), followed by addition of a mixture of isoproterenol (final of 100 nM) and luciferin (final of 1 mM) for Gi/o-cAMP production inhibition assays and luciferin (final of 1 mM) for Gs-cAMP production assays. The plates were counted for luminescence after 25 min in a luminescence plate reader. Results were analyzed using GraphPad Prism 7.0.

[2] = biological target: T2, MT1 wildtype (WT) (Homo sapiens, UniProt P48039); assay: Tango β-arrestin recruitment assay, MT1 wildtype; type: cell-based; conditions: normalized individually (basal 0%, maximum 100%); mean ± SEM, minimum of 3 assays; read-out: pEC50, Tango, MT1 WT (converted)
T2 construct: host or cells: HTLA cells (HEKT based)
T2 sequence (P48039 whole entry): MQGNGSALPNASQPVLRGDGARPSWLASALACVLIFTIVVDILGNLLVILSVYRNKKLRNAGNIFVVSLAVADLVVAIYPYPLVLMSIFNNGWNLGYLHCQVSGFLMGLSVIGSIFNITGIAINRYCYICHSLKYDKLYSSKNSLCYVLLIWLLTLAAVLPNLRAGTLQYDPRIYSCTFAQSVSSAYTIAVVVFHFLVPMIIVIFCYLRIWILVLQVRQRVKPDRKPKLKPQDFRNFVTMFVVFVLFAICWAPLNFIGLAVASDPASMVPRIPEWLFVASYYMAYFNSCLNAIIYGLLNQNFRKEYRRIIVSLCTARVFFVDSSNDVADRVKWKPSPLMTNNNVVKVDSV
Protocol: (§1) In brief, HTLA cells were transiently transfected with receptor TANGO DNA constructs overnight in DMEM with 10% FBS. Transfected cells were then plated into poly-L-Lys coated 384-well plates using DMEM supplemented with 1% dialyzed FBS. After 6 hr incubation, drug dilutions, prepared in DMEM with 1% dFBS, were added for incubation overnight (16–20 hr). Medium and drug solutions were removed, Bright-Glo reagent (20 uL/well) was added for luminescence counting 20 min later. Results were analyzed in GraphPad Prism 7.0.

[3] = biological target: T3, 5-HT1A (Homo sapiens, UniProt P08908); assay: Off-target radioligand binding, 5-HT1A
T3 construct: expressed in transfected cells; host or cells: HEK293T, transient transfection (NIMH PDSP)
T3 sequence (P08908 1-422): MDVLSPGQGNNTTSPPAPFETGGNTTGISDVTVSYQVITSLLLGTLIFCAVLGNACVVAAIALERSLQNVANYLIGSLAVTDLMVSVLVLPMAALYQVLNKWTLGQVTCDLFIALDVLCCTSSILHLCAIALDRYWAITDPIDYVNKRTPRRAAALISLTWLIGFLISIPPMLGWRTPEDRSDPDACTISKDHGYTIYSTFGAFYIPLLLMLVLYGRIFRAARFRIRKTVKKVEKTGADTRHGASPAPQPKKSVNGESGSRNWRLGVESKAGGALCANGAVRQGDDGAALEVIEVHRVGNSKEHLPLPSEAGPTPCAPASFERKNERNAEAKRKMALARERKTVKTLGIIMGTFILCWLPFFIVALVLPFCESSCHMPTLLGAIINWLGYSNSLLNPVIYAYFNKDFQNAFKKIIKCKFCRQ
Protocol: The Radioligand binding assays were conducted by the NIMH Psychoactive Drug Screening Program (PDSP). The NIMH PDSP is directed by Bryan L. Roth, MD, PhD, at the University of North Carolina at Chapel Hill, North Carolina, and Program Officer Jamie Driscoll at NIMH, Bethesda, MD. Binding assay procedures and protocols are also available online at http://pdspdb.unc.edu/pdspWeb/?site=assays. […] Assay plates were sealed and incubated for 4 hr at 37°C in a humidified incubator until harvesting. Plates were harvested using vacuum filtration onto 0.3% polyethyleneimine pre-soaked 96-well Filtermat A (PerkinElmer) and washed three times with cold wash buffer (50 mM Tris, pH 7.4). Filters were dried and melted with a scintillation cocktail (Meltilex, PerkinElmer). Radioactivity was counted using a Wallac TriLux Microbeta counter (PerkinElmer). Results were analyzed using GraphPad Prism 7.0.

[4] = biological target: T4, MT1 N162Q mutant receptor (Homo sapiens, UniProt P48039, N162Q); assay: Tango β-arrestin recruitment assay, MT1 N162Q mutant; type: cell-based; conditions: normalized individually (basal 0%, maximum 100%); mean ± SEM, minimum of 3 assays; read-out: pEC50, Tango, MT1 N162Q (converted)
T4 construct: expressed in transfected cells; host or cells: HTLA cells (HEKT based)
T4 sequence (P48039 whole entry N162Q): as the sequence (P48039 whole entry) above, with N162Q counted along it
Protocol: as §1

T1 sequence (P48039 whole entry): as the sequence (P48039 whole entry) above

Compound: COc1ccc2[nH]cc(CCNC(N)=O)c2c1 [Compound 28, [2-(5-methoxy-1H-indol-3-yl)ethyl]urea]
- EC50 ([1]; SEM, N = 3, read-out: MT1 pEC50 ± SEM (converted)): 0.0407 nM
- EC50 ([1]; read-out: MT1 EC50): 0.04 nM
- MT1 LE ([1]; ligand efficiency (based on EC50)): 0.86 kcal/mol per non-hydrogen atom
- Emax ([1]; read-out: MT1 Emax ± SEM): 95.3 ± 2.6%
- EC50 [2]: 22.9 nM
- inhibition at 10 µM ([3]; 10 μM): > 50%
- Ki ([3]; read-out: pKi, 5-HT1A (converted)): 851 nM
- EC50 [4]: 468 nM
